Calls of active or inactive are those of the source. No cut-off for these calls is given here.
Key:
[1] = tested on: Bortezomib-resistant ANBL6; experiment: Synergistic apoptosis activity in human bortezomib-resistant ANBL6 cells assessed as early apoptosis at 1600 nM incubated for 24 hrs in the presence of BTZ by annexin V and 7-AAD staining by flow cytometry analysis; type: functional
ANBL-6 [2] = experiment: Synergistic apoptosis activity in wild-type human ANBL-6 cells assessed as viable at 1600 nM incubated for 72 hrs in the presence of BTZ by annexin V and 7-AAD staining by flow cytometry analysis (Rvb=59 %); type: functional
ANBL-6 [3] = experiment: Synergistic apoptosis activity in wild-type human ANBL-6 cells assessed as early apoptosis at 1600 nM incubated for 72 hrs in the presence of BTZ by annexin V and 7-AAD staining by flow cytometry analysis; type: functional
[4] = tested on: Bortezomib-resistant ANBL6; experiment: Synergistic apoptosis activity in human bortezomib-resistant ANBL6 cells assessed as early apoptosis at 1600 nM incubated for 72 hrs in the presence of BTZ by annexin V and 7-AAD staining by flow cytometry analysis (Rvb=15 %); type: functional
[5] = tested on: Bortezomib-resistant ANBL6; experiment: Induction of apoptosis in human bortezomib-resistant ANBL6 cells assessed as late apoptosis at 160 nM incubated for 72 hrs by annexin V and 7-AAD staining by flow cytometry analysis (Rvb=5 %); type: functional
[6] = target: T1, Bromodomain and extra-terminal motif (BET) (Homo sapiens) (UniProt P25440+O60885+Q58F21+Q15059); settings: Bortezomib-resistant ANBL6 cell, dose lower 40.0 nM, dose upper […]
ANBL-6 [7] = experiment: Synergistic apoptosis activity in wild-type human ANBL-6 cells assessed as early apoptosis at 1600 nM incubated for 72 hrs in the presence of BTZ by annexin V and 7-AAD staining by flow cytometry analysis (Rvb=14 %); type: functional
[8] = target: T1, Bromodomain and extra-terminal motif (BET) (Homo sapiens); settings: Bortezomib-resistant ANBL6 cell, dose lower 40.0 nM, dose upper […]; remark: listed apart in the source
[9] = tested on: Bortezomib-resistant ANBL6; experiment: Synergistic apoptosis activity in human bortezomib-resistant ANBL6 cells assessed as viable at 1600 nM incubated for 72 hrs in the presence of BTZ by annexin V and 7-AAD staining by flow cytometry analysis (Rvb=80 %); type: functional
ANBL-6 [10] = experiment: Synergistic apoptosis activity in wild-type human ANBL-6 cells assessed as late apoptosis at 1600 nM incubated for 72 hrs in the presence of BTZ by annexin V and 7-AAD staining by flow cytometry analysis (Rvb=26 %); type: functional
[11] = target: T1, Bromodomain and extra-terminal motif (BET) (Homo sapiens); settings: Bortezomib-resistant ANBL6 cell, dose lower 40.0 nM, dose upper […]; remark: listed apart in the source
ANBL-6 [12] = experiment: Synergistic apoptosis activity in wild-type human ANBL-6 cells assessed as early apoptosis at 1600 nM incubated for 24 hrs in the presence of BTZ by annexin V and 7-AAD staining by flow cytometry analysis; type: functional
ANBL-6 [13] = experiment: Induction of apoptosis in wild-type human ANBL-6 cells assessed as late apoptosis at 1600 nM incubated for 72 hrs by annexin V and 7-AAD staining by flow cytometry analysis (Rvb=26 %); type: functional
[14] = target: T1, Bromodomain and extra-terminal motif (BET) (Homo sapiens); settings: ANBL-6, dose lower 40.0 nM, dose upper […]
[15] = tested on: Bortezomib-resistant ANBL6; experiment: Induction of apoptosis in human bortezomib-resistant ANBL6 cells assessed as early apoptosis at 1600 nM incubated for 72 hrs by annexin V and 7-AAD staining by flow cytometry analysis (Rvb=15 %); type: functional
[16] = Synergistic antiproliferative activity against human melphalan-resistant RPMI-8226 cells assessed as reduction in cell viability at ED50 incubated for 72 hrs in presence of bortezomib by MTS assay; type: functional, Melphalan-resistant RPMI-8226 cell
[17] = tested on: Bortezomib-resistant ANBL6; experiment: Synergistic apoptosis activity in human bortezomib-resistant ANBL6 cells assessed as early apoptosis at 1600 nM incubated for 48 hrs in the presence of BTZ by annexin V and 7-AAD staining by flow cytometry analysis; type: functional
ANBL-6 [18] = experiment: Induction of apoptosis in wild-type human ANBL-6 cells assessed as viable at 40 nM incubated for 72 hrs by annexin V and 7-AAD staining by flow cytometry analysis (Rvb=59 %); type: functional
[19] = target: T1, Bromodomain and extra-terminal motif (BET) (Homo sapiens); settings: ANBL-6, dose lower 40.0 nM, dose upper […]; remark: listed apart in the source
[20] = tested on: Bortezomib-resistant ANBL6; experiment: Synergistic apoptosis activity in human bortezomib-resistant ANBL6 cells assessed as early apoptosis at 1600 nM incubated for 72 hrs in the presence of BTZ by annexin V and 7-AAD staining by flow cytometry analysis; type: functional
[21] = Synergistic antiproliferative activity against human ANBL-6 BR resistant cells assessed as reduction in cell viability at ED50 incubated for 72 hrs in presence of bortezomib by MTS assay; type: functional
ANBL-6 [22] = experiment: Synergistic antiproliferative activity against wild-type human ANBL-6 cells assessed as reduction in cell viability at ED90 incubated for 72 hrs in presence of bortezomib by MTS assay; type: functional
ANBL-6 [23] = experiment: Synergistic antiproliferative activity against wild-type human ANBL-6 cells assessed as reduction in cell viability at ED75 incubated for 72 hrs in presence of bortezomib by MTS assay; type: functional
[24] = tested on: Bortezomib-resistant ANBL6; experiment: Induction of apoptosis in human bortezomib-resistant ANBL6 cells assessed as viable at 160 nM incubated for 72 hrs by annexin V and 7-AAD staining by flow cytometry analysis (Rvb=80 %); type: functional
RPMI-8226 [25] = experiment: Synergistic antiproliferative activity against wild-type human RPMI-8226 cells assessed as reduction in cell viability at ED50 incubated for 72 hrs in presence of bortezomib by MTS assay; type: functional
[26] = target: T1, Bromodomain and extra-terminal motif (BET) (Homo sapiens); settings: ANBL-6, dose lower 40.0 nM, dose upper […]; remark: listed apart in the source
[27] = Synergistic antiproliferative activity against human melphalan-resistant RPMI-8226 cells assessed as reduction in cell viability at ED75 incubated for 72 hrs in presence of bortezomib by MTS assay; type: functional, Melphalan-resistant RPMI-8226 cell
[28] = tested on: Bortezomib-resistant ANBL6; experiment: Induction of apoptosis in human bortezomib-resistant ANBL6 cells assessed as late apoptosis at 1600 nM incubated for 72 hrs by annexin V and 7-AAD staining by flow cytometry analysis (Rvb=5 %); type: functional
ANBL-6 [29] = experiment: Induction of apoptosis in wild-type human ANBL-6 cells assessed as early apoptosis at 40 nM incubated for 72 hrs by annexin V and 7-AAD staining by flow cytometry analysis (Rvb=14 %); type: functional
RPMI-8226 [30] = experiment: Synergistic antiproliferative activity against wild-type human RPMI-8226 cells assessed as reduction in cell viability at ED75 incubated for 72 hrs in presence of bortezomib by MTS assay; type: functional
[31] = target: T1, Bromodomain and extra-terminal motif (BET) (Homo sapiens); settings: ANBL-6, dose lower 40.0 nM, dose upper […]; remark: listed apart in the source
[32] = tested on: Bortezomib-resistant ANBL6; experiment: Induction of apoptosis in human bortezomib-resistant ANBL6 cells assessed as early apoptosis at 160 nM incubated for 72 hrs by annexin V and 7-AAD staining by flow cytometry analysis (Rvb=15 %); type: functional

`Cc1sc2c(c1C)C(c1ccc(Cl)cc1)=N[C@@H](CC(N)=O)c1nnc(C)n1-2` showed a CI [1] of 0.99, an Activity (ANBL-6 [2]) of 6% and a CI (ANBL-6 [3]) of 0.44. The Activity [4] was 67%, the Activity [5] was 4% and the inhibition [6] was “inactive”. For the same molecule, the Activity (ANBL-6 [7]) was 84%, the inhibition [8] was “Dose-Dependent Effect” and the Activity [9] was 23%. For the same molecule, the Activity (ANBL-6 [10]) was 10%, the inhibition [11] was “Active” and the CI (ANBL-6 [12]) was 0.85. For the same molecule, the Activity (ANBL-6 [13]) was 31%, the inhibition [14] was “Dose-Dependent Effect” and the Activity [15] was 30%. It also gave a CI [16] of 0.925, a CI [17] of 0.77 and an Activity (ANBL-6 [18]) of 59%. The inhibition [19] was “Active”, the CI [20] was 0.87 and the CI [21] was 0.718. The CI (ANBL-6 [22]) was 0.614, the CI (ANBL-6 [23]) was 0.692 and the Activity [24] was 78%. For the same molecule, the CI (RPMI-8226 [25]) was 1.367, the inhibition [26] was “Active” and the CI [27] was 0.693. For the same molecule, the Activity [28] was 16%, the Activity (ANBL-6 [29]) was 12% and the CI (RPMI-8226 [30]) was 1.15. The inhibition [31] was “inactive” and the Activity [32] was 18%.

Source: ChEMBL document CHEMBL5715952 (Oncotarget, 2015)
